Test system in the first data set: not listed separately
Nature of the data set: MTT assay for cytotoxicity. Format: cell-based, Human. Particulars: human, HepG2.2.15 cells, half (50%) lethal concentration. As to the method: (§1) Human hepatoblastoma cell line HepG2.2.15 stably transfected with full-length HBV (provided by Shanghai Institute of Materia Medica, Chinese Academy of Sciences)
(§2) HepG2.2.15 cells were cultured and passaged according to conventional methods. DMEM containing 10% (v/v) bovine serum and the selective antibiotic G418 was used as a medium, the cells were cultured in an incubator at 37° C. under 5% CO2 for 8 days (the medium was exchanged on the 4th day).
(§3) The test compounds were formulated with DMSO into a 40 mM stock solution, which was then prepared into a solution at the defined highest concentration using a DMEM medium containing 10% Hyclone™ Fetal Bovine Serum, followed by diluting the same; the positive drug was lamivudine, which was also prepared into a solution at the defined concentration with the DMEM medium containing 10% Hyclone™ Fetal Bovine Serum.
HepG2.2.15 cells were seeded at 5×10^3 cells/well in a 96-well plate, and cultured for eight days in the presence of the compounds according to the above method, and then 200 μl of the supernatant was taken out, followed by addition of the MTT solution. After 4 hours of culture, a lysate was added. After 12 hours of culture, the OD570 was measured on a microplate reader. By comparing with the absorbance of the control well, the percentage of viable cells was calculated, and CC50, the concentration required for the reduction of cell viability by 50%, was calculated.
(Tetrazolium assays rely on reduction of a dye to a coloured formazan, in cell work by metabolically active cells.)
Regarding `N#Cc1ncc(-c2nn(Cc3ccc(Cl)cc3)c(=O)c3ccccc23)cn1` [II-2], the CC50 (usually the concentration that lowers cell viability or growth by half) at 8 days stood at 32.4 µM. This lies in the double-digit micromolar range.
On the same count and under the same terms, the result for `CCNCCCNc1ccc(-c2nn(Cc3ccc(C#N)cc3)c(=O)c3ccccc23)c(F)n1` [IV-53] reads 18.1 µM; that for `Cc1ccc(-c2nn(Cc3ccc(Cl)cc3)c(=O)c3ccc(C#N)cc23)c(F)n1` [Compound V-7], above 100 µM; that for `CS(=O)(=O)CCNc1ccc(-c2nn(Cc3ccc(C#N)cc3)c(=O)c3ccccc23)c(F)n1` [IV-74], above 100 µM.
The same measure, in the same setting: the result for `COc1ccc2c(=O)n(Cc3ccc(Cl)cc3)nc(-c3ccc(C)nc3F)c2c1` [Compound V-5] reads above 100 µM.
`N#Cc1ccc(Cn2nc(-c3ccc(N4CCC4)nc3F)c3ccccc3c2=O)cc1` [IV-11] had a CC50 at 8 days of 98.5 µM.
In turn, `N#Cc1ccc(Cn2nc(-c3cc(Cl)cnc3F)c3ccccc3c2=O)cc1` [Compound I-40] registered a CC50 at 8 days above 100 µM.
`CN(C)CCCNc1ccc(-c2nn(Cc3ccc(C#N)cc3)c(=O)c3ccccc23)c(F)n1` [IV-39]: the CC50 at 8 days came to 18.4 µM.
On the same count and under the same terms, the result for `Cc1cnc(-c2nn(Cc3ccc(Cl)cc3)c(=O)c3ccccc23)cn1` [III-1] reads 87.8 µM; that for `N#Cc1ccc(Cn2nc(-c3ccc(CN4CCOCC4)nc3F)c3ccccc3c2=O)cc1` [IV-24], above 100 µM.
As for `[2H]C([2H])(c1ccc(C#N)cc1)n1nc(-c2ccc(F)nc2F)c2ccccc2c1=O` [IV-18], the half-maximal cytotoxic concentration (CC50) at 8 days was above 100 µM.
Still for that read-out and setting: the result for `N#Cc1ccc(Cn2nc(-c3cc(CN4CCOCC4)cnc3F)c3ccccc3c2=O)cc1` [Compound I-45] reads above 100 µM; that for `CC(=O)OCc1ccc(-c2nn(Cc3ccc(C#N)cc3)c(=O)c3ccccc23)c(F)n1` [IV-23], above 100 µM; that for `CCOCCOCCNc1ccc(-c2nn(Cc3ccc(C#N)cc3)c(=O)c3ccccc23)c(F)n1` [IV-56], above 100 µM.
As to `O=c1c2ccccc2c(-c2ccc(NCC3CCOCC3)nc2F)nn1Cc1ccc(Cl)cc1` [Compound I-30], the CC50 at 8 days is above 100 µM.
For `CCOCCCNc1nc(F)c(-c2nn(Cc3ccc(C#N)cc3)c(=O)c3ccccc23)cc1Cl` [IV-44], the CC50 at 8 days was 54.8 µM.
The same measure, in the same setting: as for `N#Cc1ccc(Cn2nc(-c3cccnc3)c3ccccc3c2=O)cc1` [IV-1], the figure is above 100 µM; as for `CCOC(=O)CCNc1nc(F)c(-c2nn(Cc3ccc(C#N)cc3)c(=O)c3ccccc23)cc1Cl` [IV-71], above 100 µM.
Consider `N#Cc1ccc(Cn2nc(-c3ccc(N)nc3C#N)c3ccccc3c2=O)cc1` [IV-7], for which the half-maximal cytotoxic concentration (CC50) at 8 days is above 100 µM.
In turn, `CC(=O)OCc1ccc(-c2nn(Cc3ccc(Cl)cc3)c(=O)c3ccccc23)c(F)n1` [Compound I-28] returned a CC50 at 8 days of 73.1 µM.
On the same count and under the same terms, as for `COCCOCCOCCNc1nc(F)c(-c2nn(Cc3ccc(C#N)cc3)c(=O)c3ccccc23)cc1Cl` [IV-50], the figure is above 100 µM.

The subject of the next data set is HBV. Description: HBV DNA content in the supernatant of cell culture (real-time PCR). It counts as cell-based, hepatitis B virus (HBV). Particulars: Hepatitis B virus, HepG2.2.15, 192 h, inhibition of HBV DNA replication, HepG2.2.15 supernatant, 8 days. The procedure:
as §1, §2, §3
HepG2.2.15 cells were treated with compounds at different concentrations for 8 days (the medium was exchanged on the 4th day), and the supernatant was aspirated, and the HBV DNA contained in the mature virus particles in the supernatant was quantitated by using a real-time PCR method.
1) The supernatant DNA from a 96-well plate, 200 μl/well, was collected, wherein the contents in the duplicate wells were collected into a same EP tube, and centrifuged at 4000 rcf for 5 min, and the supernatant was collected;
2) 200 μl of the supernatant was added into a 1.5 ml EP tube, added with 20 μl of proteinase K and 200 μl of Buffer AL (Qiagen, DNeasy® Blood & Tissue Kit), vortexed to be mixed thoroughly, and incubated at 56° C. for 10 min;
3) 200 μl of ethanol was added and vortexed to be mixed thoroughly;
4) all the liquid obtained from step 3) was added into a DNeasy Mini spin column (Qiagen, DNeasy® Blood & Tissue Kit) placed in a 2 ml waste liquid collection tube, and centrifuged at 6000 rcf for 1 min, and the supernatant was discarded;
5) the DNeasy Mini spin column was placed in a new 2 ml waste liquid collection tube, added with 500 μl of Buffer AW1 (Qiagen, DNeasy® Blood & Tissue Kit), and centrifuged at 6000 rcf for 1 min, and the supernatant was discarded;
6) the DNeasy Mini spin column was placed in a new 2 ml waste liquid collection tube, added with 500 μl of Buffer AW2, (Qiagen, DNeasy® Blood & Tissue Kit), and centrifuged at 20000 rcf for 3 min, and the supernatant was discarded;
7) the DNeasy Mini spin column was placed in anew 1.5 ml EP tube, 50 μl of Buffer AE (Qiagen, DNeasy® Blood & Tissue Kit) was pipetted and directly applied onto the membrane of the DNeasy Mini spin column, which was then left at room temperature for 5 min, and centrifuged at 6000 rcf for 1 min to elute the DNA from the membrane, the DNeasy Mini spin column was discarded, and the DNA sample was collected and stored at −20° C.
1) Standard curve: 1e^7-1e^4 IU/ml, the sample amount was 1 μl, a blank well was set so as to check whether the reaction system is polluted or not;
2) 1 μl of a DNA sample was added in sequence;
3) Addition of enzyme and reaction buffer: two tubes of the reaction solution were first added into the enzyme, mixed well and centrifuged slightly, placed on ice, added with the sample, followed by addition of 19 μl of the enzyme reaction solution, wherein, during the addition, the DNA sample should be sure of not being touched to cause contamination;
4) the sample was sealed with a sealing film and centrifuged;
Stage 2: 10 cycles • Step 1: 93° C., 45 s • Step 2: 55° C., 1 min Stage 3: 45 cycles • Step 1: 93° C., 30 s • Step 2: 55° C., 45 s
Detection: data were collected after completing the step 2 (55° C., 45 s) of the stage 3.
The experimental data were processed by using the Origin software and IC50 was calculated.
In general terms: Quantitative PCR measures a nucleic acid by following its amplification.
On to `N#Cc1ncc(-c2nn(Cc3ccc(Cl)cc3)c(=O)c3ccccc23)cn1` [II-2], for which the IC50 – broadly, the point on the concentration scale where inhibition reaches its midpoint – is 4.5 µM.
For the compound `CCNCCCNc1ccc(-c2nn(Cc3ccc(C#N)cc3)c(=O)c3ccccc23)c(F)n1` [IV-53], the IC50 came out at 1.07 µM. This IC50 is about 4.2-fold lower than that of the compound before.
As to `Cc1ccc(-c2nn(Cc3ccc(Cl)cc3)c(=O)c3ccc(C#N)cc23)c(F)n1` [Compound V-7], the IC50 came to 0.9 µM.
In turn, `CS(=O)(=O)CCNc1ccc(-c2nn(Cc3ccc(C#N)cc3)c(=O)c3ccccc23)c(F)n1` [IV-74] returned an IC50 of 0.13 µM.
`COc1ccc2c(=O)n(Cc3ccc(Cl)cc3)nc(-c3ccc(C)nc3F)c2c1` [Compound V-5] registered an IC50 of 3.7 µM.
The compound `N#Cc1ccc(Cn2nc(-c3ccc(N4CCC4)nc3F)c3ccccc3c2=O)cc1` [IV-11] returned an IC50 of 0.4 µM.
The same measure, in the same setting: the result for `N#Cc1ccc(Cn2nc(-c3cc(Cl)cnc3F)c3ccccc3c2=O)cc1` [Compound I-40] reads 0.051 µM.
The compound `CN(C)CCCNc1ccc(-c2nn(Cc3ccc(C#N)cc3)c(=O)c3ccccc23)c(F)n1` [IV-39] returned an IC50 of 0.684 µM. This IC50 is about 13-fold higher than that of the compound before.
`Cc1cnc(-c2nn(Cc3ccc(Cl)cc3)c(=O)c3ccccc23)cn1` [III-1] showed an IC50 of 6.2 µM.
Same read-out and setting: the result for `N#Cc1ccc(Cn2nc(-c3ccc(CN4CCOCC4)nc3F)c3ccccc3c2=O)cc1` [IV-24] reads 0.35 µM.
`[2H]C([2H])(c1ccc(C#N)cc1)n1nc(-c2ccc(F)nc2F)c2ccccc2c1=O` [IV-18]: it took 0.21 µM to reach half-maximal inhibition (IC50). This IC50 lies about 1.7-fold lower than the previous one.
In the case of `N#Cc1ccc(Cn2nc(-c3cc(CN4CCOCC4)cnc3F)c3ccccc3c2=O)cc1` [Compound I-45], inhibition was half-maximal at 2.02 µM (IC50).
The same measure, in the same setting: the result for `CC(=O)OCc1ccc(-c2nn(Cc3ccc(C#N)cc3)c(=O)c3ccccc23)c(F)n1` [IV-23] reads 4.5 µM; that for `CCOCCOCCNc1ccc(-c2nn(Cc3ccc(C#N)cc3)c(=O)c3ccccc23)c(F)n1` [IV-56], 0.214 µM.
As for `O=c1c2ccccc2c(-c2ccc(NCC3CCOCC3)nc2F)nn1Cc1ccc(Cl)cc1` [Compound I-30], the half-maximal inhibitory concentration (IC50) amounted to 0.4 µM.
Same read-out and setting: the result for `CCOCCCNc1nc(F)c(-c2nn(Cc3ccc(C#N)cc3)c(=O)c3ccccc23)cc1Cl` [IV-44] reads below 0.0977 µM; that for `N#Cc1ccc(Cn2nc(-c3cccnc3)c3ccccc3c2=O)cc1` [IV-1], 5.4 µM.
Turning to `CCOC(=O)CCNc1nc(F)c(-c2nn(Cc3ccc(C#N)cc3)c(=O)c3ccccc23)cc1Cl` [IV-71], it took 2.78 µM to reach half-maximal inhibition (IC50).
Same read-out and setting: as for `N#Cc1ccc(Cn2nc(-c3ccc(N)nc3C#N)c3ccccc3c2=O)cc1` [IV-7], the figure is 0.8 µM; as for `CC(=O)OCc1ccc(-c2nn(Cc3ccc(Cl)cc3)c(=O)c3ccccc23)c(F)n1` [Compound I-28], 1 µM.
Same read-out and setting: the result for `COCCOCCOCCNc1nc(F)c(-c2nn(Cc3ccc(C#N)cc3)c(=O)c3ccccc23)cc1Cl` [IV-50] reads 0.00965 µM.

The record behind these values is patent US11040952B2, “Phthalazinone compound, method for preparation thereof, pharmaceutical composition thereof, and use thereof” (SHANGHAI INSTITUTE OF MATERIA MEDICA, CHINESE ACADEMY OF …, priority 2017, dated 2021).
